Measured values reported in patent US20210317134A1, “UBIQUITIN-SPECIFIC-PROCESSING PROTEASE 7 (USP7) MODULATORS AND USES THEREOF” (RAPT THERAPEUTICS, INC., priority 2019, published 2021).

Target: USP7 (Homo sapiens, UniProt Q93009)
Assay: USP7 inhibitory potency (Table 1)
Type: biochemical

Sequence of USP7 (Q93009 whole entry): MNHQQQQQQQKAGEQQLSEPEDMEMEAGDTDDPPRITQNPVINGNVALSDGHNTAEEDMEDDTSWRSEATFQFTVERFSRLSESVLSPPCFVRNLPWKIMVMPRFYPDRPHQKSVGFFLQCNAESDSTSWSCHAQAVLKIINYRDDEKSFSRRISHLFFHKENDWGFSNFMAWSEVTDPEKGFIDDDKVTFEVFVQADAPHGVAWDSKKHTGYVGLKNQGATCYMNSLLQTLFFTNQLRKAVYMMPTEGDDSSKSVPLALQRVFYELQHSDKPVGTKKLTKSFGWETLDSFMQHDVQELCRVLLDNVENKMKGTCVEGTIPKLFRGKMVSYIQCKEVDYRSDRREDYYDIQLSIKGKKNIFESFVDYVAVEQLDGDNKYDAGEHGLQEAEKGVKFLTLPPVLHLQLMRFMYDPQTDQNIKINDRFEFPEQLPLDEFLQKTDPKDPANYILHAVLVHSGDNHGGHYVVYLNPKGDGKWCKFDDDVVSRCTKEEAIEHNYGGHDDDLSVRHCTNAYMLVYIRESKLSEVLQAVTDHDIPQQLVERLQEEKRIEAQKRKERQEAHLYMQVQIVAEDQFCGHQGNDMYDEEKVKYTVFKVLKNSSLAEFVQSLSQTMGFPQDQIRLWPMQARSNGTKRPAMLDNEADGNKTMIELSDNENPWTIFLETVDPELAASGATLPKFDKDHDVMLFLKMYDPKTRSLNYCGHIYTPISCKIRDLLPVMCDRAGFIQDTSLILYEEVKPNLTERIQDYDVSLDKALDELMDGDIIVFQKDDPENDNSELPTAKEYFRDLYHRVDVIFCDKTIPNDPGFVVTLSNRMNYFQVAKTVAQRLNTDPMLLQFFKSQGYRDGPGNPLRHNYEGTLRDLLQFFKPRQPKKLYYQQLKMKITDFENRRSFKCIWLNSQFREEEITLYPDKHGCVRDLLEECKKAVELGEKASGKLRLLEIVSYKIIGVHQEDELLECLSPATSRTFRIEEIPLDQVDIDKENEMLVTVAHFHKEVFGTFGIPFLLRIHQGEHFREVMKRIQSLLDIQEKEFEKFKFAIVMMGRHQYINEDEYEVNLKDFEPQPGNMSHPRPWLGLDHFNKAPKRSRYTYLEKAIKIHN

| Compound | IC50 [nM] |
| --- | --- |
| O=C([C@H]1Cc2cc(Cl)cc(-c3ccnc4cc(CO)sc34)c2O1)N1CCn2cnnc2C1 [(R)-(5-chloro-7-(2-(hydroxymethyl)thieno[3,2-b]pyridin-7-yl)-2,3-dihydrobenzofuran-2-yl)(5,6-dihydro-[1,2,4]triazolo[4,3-a]pyrazin-7(8H)-yl)methanone] | 1000 to 10000 |
| O=C([C@H]1Cc2cc(Cl)cc(-c3ccnc4cc(CO)sc34)c2O1)N1CCn2ccnc2C1 [(R)-(5-chloro-7-(2-(hydroxymethyl)thieno[3,2-b]pyridin-7-yl)-2,3-dihydrobenzofuran-2-yl)(5,6-dihydroimidazo[1,2-a]pyrazin-7(8H)-yl)methanone] | < 1000 |
| O=C([C@H]1Cc2cc(Cl)cc(-c3ccnc4cc(CO)sc34)c2O1)N1CCNCC1 [(R)-(5-chloro-7-(2-(hydroxymethyl)thieno[3,2-b]pyridin-7-yl)-2,3-dihydrobenzofuran-2-yl)(piperazin-1-yl)methanone] | < 1000 |
| O=C([C@H]1Cc2cc(Cl)cc(-c3ccnc4c3CCC4)c2O1)N1CCNCC1 [(R)-(5-chloro-7-(6,7-dihydro-5H-cyclopenta[b]pyridin-4-yl)-2,3-dihydrobenzofuran-2-yl)(piperazin-1-yl)methanone] | < 1000 |
| Cc1cc2ncnc(-c3cc(Cl)cc4c3O[C@@H](C(=O)N3CCNCC3)C4)c2s1 [(R)-(5-chloro-7-(6-methylthieno[3,2-d]pyrimidin-4-yl)-2,3-dihydrobenzofuran-2-yl)(piperazin-1-yl)methanone] | < 1000 |
| O=C([C@H]1Cc2cc(Cl)cc(-c3ccnc4occc34)c2O1)N1CCNCC1 [(R)-(5-chloro-7-(furo[2,3-b]pyridin-4-yl)-2,3-dihydrobenzofuran-2-yl)(piperazin-1-yl)methanone] | 1000 to 10000 |
| O=C([C@H]1Cc2cc(Cl)cc(-c3ccnc4ccoc34)c2O1)N1CCNCC1 [(R)-(5-chloro-7-(furo[3,2-b]pyridin-7-yl)-2,3-dihydrobenzofuran-2-yl)(piperazin-1-yl)methanone] | < 1000 |
| O=C([C@H]1Cc2cc(Cl)cc(-c3ncnc4ccoc34)c2O1)N1CCNCC1 [(R)-(5-chloro-7-(furo[3,2-d]pyrimidin-4-yl)-2,3-dihydrobenzofuran-2-yl)(piperazin-1-yl)methanone] | 10000 to 30000 |
| O=C([C@H]1Cc2cc(Cl)cc(-c3ccnc4sccc34)c2O1)N1CCNCC1 [(R)-(5-chloro-7-(thieno[2,3-b]pyridin-4-yl)-2,3-dihydrobenzofuran-2-yl)(piperazin-1-yl)methanone] | 1000 to 10000 |
| CN(C)C1CN(C(=O)[C@H]2Cc3cc(Cl)cc(-c4ccnc5ccsc45)c3O2)C1 [(R)-(5-chloro-7-(thieno[3,2-b]pyridin-7-yl)-2,3-dihydrobenzofuran-2-yl)(3-(dimethylamino)azetidin-1-yl)methanone] | < 1000 |
| CN(C)C1CCN(C(=O)[C@H]2Cc3cc(Cl)cc(-c4ccnc5ccsc45)c3O2)CC1 [(R)-(5-chloro-7-(thieno[3,2-b]pyridin-7-yl)-2,3-dihydrobenzofuran-2-yl)(4-(dimethylamino)piperidin-1-yl)methanone] | < 1000 |
| CNC1CCN(C(=O)[C@H]2Cc3cc(Cl)cc(-c4ccnc5ccsc45)c3O2)CC1 [(R)-(5-chloro-7-(thieno[3,2-b]pyridin-7-yl)-2,3-dihydrobenzofuran-2-yl)(4-(methylamino)piperidin-1-yl)methanone] | < 1000 |
| O=C([C@H]1Cc2cc(Cl)cc(-c3ccnc4ccsc34)c2O1)N1CCC(N2CCCC2)CC1 [(R)-(5-chloro-7-(thieno[3,2-b]pyridin-7-yl)-2,3-dihydrobenzofuran-2-yl)(4-(pyrrolidin-1-yl)piperidin-1-yl)methanone] | < 1000 |
| O=C([C@H]1Cc2cc(Cl)cc(-c3ccnc4ccsc34)c2O1)N1CCNCC1 [(R)-(5-chloro-7-(thieno[3,2-b]pyridin-7-yl)-2,3-dihydrobenzofuran-2-yl)(piperazin-1-yl)methanone] | < 1000 |
| O=C([C@H]1CCc2cc(Cl)cc(-c3ccnc4cc(CO)sc34)c2O1)N1CCNCC1 [(R)-(6-chloro-8-(2-(hydroxymethyl)thieno[3,2-b]pyridin-7-yl)chroman-2-yl)(piperazin-1-yl)methanone] | < 1000 |
| NCc1cc2nccc(-c3cc(Cl)cc4c3O[C@@H](C(=O)N3CCNCC3)C4)c2s1 [(R)-(7-(2-(aminomethyl)thieno[3,2-b]pyridin-7-yl)-5-chloro-2,3-dihydrobenzofuran-2-yl)(piperazin-1-yl)methanone] | < 1000 |
| Cn1nc2c(c1[C@H]1Cc3cc(Cl)cc(-c4ccnc5cc(CO)sc45)c3O1)CNCC2 [(R)-(7-(5-chloro-2-(2-methyl-4,5,6,7-tetrahydro-2H-pyrazolo[4,3-c]pyridin-3-yl)-2,3-dihydrobenzofuran-7-yl)thieno[3,2-b]pyridin-2-yl)methanol] | < 1000 |

| Compound | IC50 [nM] |
| --- | --- |
| CCN1CCc2noc([C@H]3Cc4cc(Cl)cc(-c5ccnc6cc(CO)sc56)c4O3)c2C1 [(R)-(7-(5-chloro-2-(5-ethyl-4,5,6,7-tetrahydroisoxazolo[4,3-c]pyridin-3-yl)-2,3-dihydrobenzofuran-7-yl)thieno[3,2-b]pyridin-2-yl)methanol] | < 1000 |
| CN1CCc2noc([C@H]3Cc4cc(Cl)cc(-c5ccnc6cc(CO)sc56)c4O3)c2C1 [(R)-(7-(5-chloro-2-(5-methyl-4,5,6,7-tetrahydroisoxazolo[4,3-c]pyridin-3-yl)-2,3-dihydrobenzofuran-7-yl)thieno[3,2-b]pyridin-2-yl)methanol] | < 1000 |
| OCc1cc2nccc(-c3cc(Cl)cc4c3O[C@@H](c3onc5c3CNCC5)CC4)c2s1 [(R)-(7-(6-chloro-2-(4,5,6,7-tetrahydroisoxazolo[4,3-c]pyridin-3-yl)chroman-8-yl)thieno[3,2-b]pyridin-2-yl)methanol] | < 1000 |
| CC(=O)NCCc1cc2nccc(-c3cc(Cl)cc4c3O[C@@H](C(=O)N3CCNCC3)C4)c2s1 [(R)-N-(2-(7-(5-chloro-2-(piperazine-1-carbonyl)-2,3-dihydrobenzofuran-7-yl)thieno[3,2-b]pyridin-2-yl)ethyl)acetamide] | < 1000 |
| O=C([C@H]1Cc2cc(Cl)cc(-c3ccnc4cc(CCNS(=O)(=O)c5ccccc5)sc34)c2O1)N1CCNCC1 [(R)-N-(2-(7-(5-chloro-2-(piperazine-1-carbonyl)-2,3-dihydrobenzofuran-7-yl)thieno[3,2-b]pyridin-2-yl)ethyl)benzenesulfonamide] | < 1000 |
| CN(C)S(=O)(=O)NCCc1cc2nccc(-c3cc(Cl)cc4c3O[C@@H](C(=O)N3CCNCC3)C4)c2s1 [(R)-N-(2-(7-(5-chloro-2-(piperazine-1-carbonyl)-2,3-dihydrobenzofuran-7-yl)thieno[3,2-b]pyridin-2-yl)ethyl)dimethylamimosulfonylurea] | < 1000 |
| CS(=O)(=O)NCCc1cc2nccc(-c3cc(Cl)cc4c3O[C@@H](C(=O)N3CCNCC3)C4)c2s1 [(R)-N-(2-(7-(5-chloro-2-(piperazine-1-carbonyl)-2,3-dihydrobenzofuran-7-yl)thieno[3,2-b]pyridin-2-yl)ethyl)methanesulfonamide] | < 1000 |
| CC(C)S(=O)(=O)NCCc1cc2nccc(-c3cc(Cl)cc4c3O[C@@H](C(=O)N3CCNCC3)C4)c2s1 [(R)-N-(2-(7-(5-chloro-2-(piperazine-1-carbonyl)-2,3-dihydrobenzofuran-7-yl)thieno[3,2-b]pyridin-2-yl)ethyl)propane-2-sulfonamide] | < 1000 |
| CC(=O)NC(C)(C)c1cc2nccc(-c3cc(Cl)cc4c3O[C@@H](C(=O)N3CCNCC3)C4)c2s1 [(R)-N-(2-(7-(5-chloro-2-(piperazine-1-carbonyl)-2,3-dihydrobenzofuran-7-yl)thieno[3,2-b]pyridin-2-yl)propan-2-yl)acetamide] | 1000 to 10000 |
| CC(=O)NCc1ccc2c(-c3cc(Cl)cc4c3O[C@@H](c3onc5c3CNCC5)C4)ccnc2c1 [(R)-N-((4-(5-chloro-2-(4,5,6,7-tetrahydroisoxazolo[4,3-c]pyridin-3-yl)-2,3-dihydrobenzofuran-7-yl)quinolin-7-yl)methyl)acetamide] | 1000 to 10000 |
| CS(=O)(=O)NCc1ccc2c(-c3cc(Cl)cc4c3O[C@@H](c3onc5c3CNCC5)C4)ccnc2c1 [(R)-N-((4-(5-chloro-2-(4,5,6,7-tetrahydroisoxazolo[4,3-c]pyridin-3-yl)-2,3-dihydrobenzofuran-7-yl)quinolin-7-yl)methyl)methanesulfonamide] | 1000 to 10000 |
| CC(=O)NCc1cc2ncnc(-c3cc(Cl)cc4c3O[C@@H](c3onc5c3CNCC5)C4)c2s1 [(R)-N-((4-(5-chloro-2-(4,5,6,7-tetrahydroisoxazolo[4,3-c]pyridin-3-yl)-2,3-dihydrobenzofuran-7-yl)thieno[3,2-d]pyrimidin-6-yl)methyl)acetamide] | < 1000 |
| CC(=O)NCc1cc2nccc(-c3cc(Cl)cc4c3O[C@@H](c3c5c(nn3C)CCNC5)C4)c2s1 [(R)-N-((7-(5-chloro-2-(2-methyl-4,5,6,7-tetrahydro-2H-pyrazolo[4,3-c]pyridin-3-yl)-2,3-dihydrobenzofuran-7-yl)thieno[3,2-b]pyridin-2-yl)methyl)acetamide] | < 1000 |
| FC(F)(F)CNCc1cc2nccc(-c3cc(Cl)cc4c3O[C@@H](c3onc5c3CNCC5)C4)c2s1 [(R)-N-((7-(5-chloro-2-(4,5,6,7-tetrahydroisoxazolo[4,3-c]pyridin-3-yl)-2,3-dihydrobenzofuran-7-yl)thieno[3,2-b]pyridin-2-yl)methyl)-2,2,2-trifluoroethan-1-amine] | < 1000 |
| CC(=O)NCc1cc2nccc(-c3cc(Cl)cc4c3O[C@@H](c3onc5c3CNCC5)C4)c2s1 [(R)-N-((7-(5-chloro-2-(4,5,6,7-tetrahydroisoxazolo[4,3-c]pyridin-3-yl)-2,3-dihydrobenzofuran-7-yl)thieno[3,2-b]pyridin-2-yl)methyl)acetamide] | < 1000 |
| CC(C)C(=O)NCc1cc2nccc(-c3cc(Cl)cc4c3O[C@@H](c3onc5c3CNCC5)C4)c2s1 [(R)-N-((7-(5-chloro-2-(4,5,6,7-tetrahydroisoxazolo[4,3-c]pyridin-3-yl)-2,3-dihydrobenzofuran-7-yl)thieno[3,2-b]pyridin-2-yl)methyl)isobutyramide] | < 1000 |
| CS(=O)(=O)NCc1cc2nccc(-c3cc(Cl)cc4c3O[C@@H](c3onc5c3CNCC5)C4)c2s1 [(R)-N-((7-(5-chloro-2-(4,5,6,7-tetrahydroisoxazolo[4,3-c]pyridin-3-yl)-2,3-dihydrobenzofuran-7-yl)thieno[3,2-b]pyridin-2-yl)methyl)methanesulfonamide] | < 1000 |
